Where “and” joins values, the source holds several entries; their conditions need not be identical. Equal values may be shown once. Read-outs that look alike come from different tables or passages of the source.
Experiments:
[1] = dogs, 3 mg/kg i.v.
in vivo [2] = conditions: rat, iv
in vivo [3] = conditions: dog, iv
MDA468 = experiment: Cytotoxicity, 3 hour pulse-exposure, MDA468; conditions: Homo sapiens
SKLC-16 = experiment: Cytotoxicity, 3 hour pulse-exposure, SKLC-16; conditions: Homo sapiens
ZR-75-1 = experiment: Cytotoxicity, 3 hour pulse-exposure, ZR-75-1; conditions: Homo sapiens, ZR-75-1, 3 h
SK-BRIII = experiment: Cytotoxicity, 3 hour pulse-exposure, SK-BRIII; conditions: Homo sapiens
human LX-1 lung cancer = conditions: LX-1 xenograft, schedule and doses as Example 2; for Average Tumor Diameter (mm): nude mice
human A549 lung cancer = conditions: A549 xenograft, schedule and doses as Example 2; for Average Tumor Diameter (mm): nude mice
Source text: Example 2 was repeated using xenografts of human A549 lung cancer in nude mice.

[4] = tested on: human MX-1 mammary carcinoma; experiment: Xenografts of human MX-1 mammary carcinoma in nude mice; conditions: MX-1 xenograft; for Average Tumor Diameter (mm): nude mice, once a day for five days starting three days after implantation, 10-propargyl-10dAM 3 mg/kg, MTX 2 mg/kg, EDX 1.5 mg/kg, measured 14 days after start of treatment; for Complete Regressions: mice with no measurable tumor 14 days after start of treatment / mice treated; for Complete Regressions / Cures: same doses; for Cures: tumor free mice three weeks after cessation of therapy / mice treated

SMILES: C#CCC(Cc1cnc2nc(N)nc(N)c2n1)c1ccc(C(=O)N[C@@H](CCC(=O)O)C(=O)O)cc1 (stereo partly drawn) [10-propargyl-10dAM, 10-Propargyl-10-deazaaminopterin]
- mice died (B6D2F1 mice; 400 mg/kg i.p. QWX3, days 19, 20, 23 and 24): four out of five
- mice died (B6D2F1 mice; 600 mg/kg i.p. QWX3, days 9, 18, 19 and 21): four out of five
- animals died (CD rats; 100 mg/kg i.v. QWX3, by day 23): one out of the five
- rats died (CD rats; 150 mg/kg i.v. QWX3, days 18, 20 and 23): three out of the five
- rats died (CD rats; 200 mg/kg i.v. QWX3, days 12, 14, 15, 20 and 20): all five
- rats died (CD rats; 300 mg/kg i.v. QWX3, days 11, 11, 12, 12 and 14): all five
- LD10 (CD rats; i.v. QWX3, conservative estimate, median-effect plot): about 75 mg/kg
- metabolite (retention time 6.3 min) as part of the total urinary 10-propargyl-10dAM ([1]; urine at 1 hr): < 0.31%
- metabolite (retention time 6.3 min) as part of the total urinary 10-propargyl-10dAM ([1]; urine at 4 hr): < 3.5%
- LD50 (in vivo [2]): ~110 mg/kg
- LD50 (in vivo [3]): ~8 mg/kg

SMILES: CCC(Cc1cnc2nc(N)nc(N)c2n1)c1ccc(C(=O)N[C@@H](CCC(=O)O)C(=O)O)cc1 (stereo partly drawn) [EDX, edatrexate]
- IC50 (MDA468): 380 ± 50 nM
- IC50 (SKLC-16): 260 ± 30 nM
- IC50 (ZR-75-1): 860 ± 100 nM
- IC50 (SK-BRIII): 990 ± 150 nM
- Average Tumor Diameter (mm) (human LX-1 lung cancer): 4.3 ± 2 mm
- Complete Regressions (human LX-1 lung cancer): 3/10
- Cures (human LX-1 lung cancer): 1/10
- Average Tumor Diameter (mm) (human A549 lung cancer): 6.8 ± 2 mm
- Complete Regressions (human A549 lung cancer): 0/5
- Cures (human A549 lung cancer): 0/5
- Average Tumor Diameter (mm) [4]: 2.2 ± 1.1 mm
- Complete Regressions [4]: 6/20
- Cures [4]: 2/20

SMILES: CN(Cc1cnc2nc(N)nc(N)c2n1)c1ccc(C(=O)N[C@@H](CCC(=O)O)C(=O)O)cc1 [MTX, methotrexate]
- Average Tumor Diameter (mm) (human LX-1 lung cancer): 9.2 ± 2 mm
- Complete Regressions (human LX-1 lung cancer): 0/10
- Cures (human LX-1 lung cancer): 0/10
- Average Tumor Diameter (mm) (human A549 lung cancer): 8.3 ± 2 mm
- Complete Regressions (human A549 lung cancer): 0/5
- Cures (human A549 lung cancer): 0/5
- Average Tumor Diameter (mm) [4]: 7.6 ± 0.8 mm
- Complete Regressions [4]: no regressions and 0/10
- Cures [4]: 0/10

From patent publication EP1891957A1 (Sloan-Kettering Institute for Cancer Research, priority 1996, dated 1998)
